# Read-outs that look alike come from different tables or passages of the source.
# What was measured:
# TNFα release = experiment: LPS-induced TNFα release in PMA-differentiated U937 cells (ELISA); format: cell-based, human
# Method: Effects of macrolides on lipopolysaccharide (LPS)-induced TNFα release in PMA-differentiated U937 cells. […] LPS-induced TNFα release was evaluated by ELISA. Values represent means of three experiments±SEM. ^##p<0.01 (vs. non-treatment control), *p<0.05, **p<0.01 (vs. treatment with LPS only).
# (§1) The human monocytic cell line U937 was obtained from the American Type Culture Collection (ATCC, Rockville, Md.). PBMCs from COPD patients were obtained from Brompton hospital and separated by AccuSPIN (Sigma-Aldrich). Cells were cultured in complete growth medium (RPMI 1640) (Sigma-Aldrich) supplemented with 10% fetal bovine serum (FBS) and 1% L-glutamine at 37° C. in a humidified atmosphere with 5% CO2. U937 cells were differentiated into adherent macrophage-like morphology by exposure to PMA (50 ng/mL) for 48 hrs in complete growth medium. Cell viability was assessed microscopically by trypan blue staining. Cell toxicity was determined by MTT assay as needed. This study was approved by the ethics committee of the Royal Brompton Hospitals, and all subjects gave written informed consent.
# (§2) TNFα and IL-8 concentrations in the supernatant of cell cultures were determined by sandwich ELISA according to the manufacturer's instructions (R&D Systems Europe, Abingdon, UK).
# (§3) The results were expressed as the mean±SEM. Comparisons of data in two groups were performed using the Student's t test or the Wilcoxon signed rank test. Multiple comparisons were made by one-way ANOVA with post hoc test (Dunnett's) as appropriate. The difference was considered significant at p<0.05. IC50 values (50% inhibitory concentration) for macrolides for production of cytokines or MMP9 were calculated using Prism 4.0 (GraphPad Software Inc., San Diego, Calif.).
# P. aeruginosa PAO1 = experiment: MIC by microdilution with PaβN or EGTA, wild-type strain; format: cell-based
# Method: MICs of 36 clinical and laboratory strains of PA with known efflux phenotype are measured by microdilution in cation-adjusted Muller-Hinton broth (CA-MHB) or in RPMI medium (commonly used in eukaryotic cell culture). Phe-Arg-β-naphthylamide (PaβN, 50 mg/L) and EGTA 5 mM are used to inhibit efflux pumps and alter OM integrity, respectively. P. aeruginosa strain ATCC PAO1 is used as reference. PA12 is a clinical strain overexpressing the 4 main efflux systems (MexAB, MexCD, MexEF, MexXY), PA403 is a laboratory strain deleted in the genes coding for the 4 efflux systems. A series of reference strains or of clinical isolates for which the expression of genes coding for efflux pumps is known is also used for MICs determinations. MICs are measured by microdilution in MH broth or in RPMI medium (used for eukaryotic cells culture) supplemented with 10% of fetal calf serum, or in MH broth supplemented by increasing amounts of serum. EGTA (5 mM) was used as a chelating agent (disrupting outer membrane integrity) and PaβN (50 mg/L) as an unspecific efflux inhibitor.
# [1] = tested on: MRSA strains from CF patients; experiment: Microdilution MICs against 40 MRSA strains from CF patients; format: cell-based, S. aureus; settings: for MIC50 / MIC90: 40 MRSA strains from CF patients
# Method: Two strains each of mucoid P. aeruginosa (both pyocyanin positive) and […] MRSA (only one strain with gold colonies) isolated from patients at a CF clinic were tested. Additionally, 2 B. cepacia strains were acquired, from Hershey Medical Center. All strains were identified by standard methods. Only one strain per patient was tested. MLVA was done on all strains to examine clonality, and confirmed that examination is not taking place on only one or a few clones. Strains will be stored in skim milk at −70° C. until use.
# Original MICs of each strain to CEM-101 and other comparators were tested by CLSI microdilution methodology. Trays were obtained from Trek, Inc., Cleveland, Ohio. Time-kill macrobroth MIC dilution by CLSI was performed for all synergy testing.
# IL-8 (CXCL8) release = experiment: LPS-induced IL-8 (CXCL8) release in PMA-differentiated U937 cells (ELISA); format: cell-based, human
# Method: Effects of macrolides on lipopolysaccharide (LPS)-induced CXCL8 release in PMA-differentiated U937 cells. […] LPS-induced CXCL8 release was evaluated by ELISA. Values represent means of three experiments±SEM. ^##p<0.01 (vs. non-treatment control), *p<0.05, **p<0.01 (vs. treatment with LPS only).
# as §1, §2, §3
# MMP9 activity = experiment: PMA-induced MMP9 activation in U937 cells (gelatin zymography); format: cell-based, human
# Method: Effects of macrolides on phorbol 12-myristate 13-acetate (PMA)-induced MMP9 activation in U937 cells. […] After 48 h supernatants were collected for zymography. MMP9 enzyme activity was measured by gelatin zymography. Data are expressed relative to standard.
# as §1
# MMP9 enzyme activity was measured by gelatin zymography. Cell culture supernatants were diluted with equal amount of Laemli sample buffer (Bio-Rad, Hertfordshire, UK) and loaded on a Novex® 10% Zymogram (Gelatin) gel (Invitrogen Ltd, Paisley, UK). After electrophoresis, gels were incubated and rinsed with Novex® zymogram renaturing buffer (Invitrogen) for 30 min at room temperature. The gels were then rinsed in Novex® zymogram developing buffer (Invitrogen) for 30 min at room temperature prior to overnight incubation in the developing buffer at 37° C. After incubation, the gels were stained using a Colloidal Blue Staining Kit (Invitrogen) to visualize the zymogen bands.
# as §3
# Tissue distribution = format: in vivo; settings: rat
# Method: CEM-101 is well absorbed and distributed to the tissue. In the rat at 250 mg/kg/d, mean lung and liver concentrations 5 of CEM-101 were 17 and 15-fold higher than in plasma.
# [2] = Homo sapiens, U-937, U937 cells, at 333 μM, read-out: IC50, LPS-induced TNFα release: NE at 333 μM
# [3] = Pseudomonas aeruginosa, PAO1, PAO1, CA-MHB, EGTA 5 mM, read-out: MIC
# [4] = Pseudomonas aeruginosa, PAO1, PAO1, CA-MHB, PaβN 50 mg/L, read-out: MIC
# [5] = Pseudomonas aeruginosa, PAO1, PAO1, CA-MHB, control conditions (CT)
# [6] = Pseudomonas aeruginosa, PAO1, PAO1, RPMI, EGTA 5 mM, read-out: MIC
# [7] = Pseudomonas aeruginosa, PAO1, PAO1, RPMI, PaβN 50 mg/L, read-out: MIC
# [8] = Pseudomonas aeruginosa, PAO1, PAO1, RPMI, control conditions (CT), read-out: MIC
# [9] = Staphylococcus aureus, read-out: MIC50
# [10] = Staphylococcus aureus, read-out: MIC90
# [11] = Homo sapiens, U-937, U937 cells, at 333 μM, read-out: IC50, LPS-induced IL-8 release: NE at 333 μM
# [12] = Homo sapiens, U-937, read-out: IC50, PMA-induced MMP9 activation
# [13] = PMA-differentiated U937 cells, read-out: IC50, LPS-induced TNFα release
# [14] = PMA-differentiated U937 cells, read-out: IC50, LPS-induced IL-8 (CXCL8) release
# [15] = at a higher concentration (333 μM)
SMILES,effect on TNFα production (TNFα release; 33 to 333 μM (FIG. 3)),IC50 (TNFα release; [2]),MIC (P. aeruginosa PAO1; [3]),MIC (P. aeruginosa PAO1; [4]),MIC (P. aeruginosa PAO1; [5]),MIC (P. aeruginosa PAO1; [6]),MIC (P. aeruginosa PAO1; [7]),MIC (P. aeruginosa PAO1; [8]),"MIC50 [1, 9]","MIC90 [1, 10]",effect on IL-8 production (IL-8 (CXCL8) release; 33 to 333 μM (FIG. 4)),IC50 (IL-8 (CXCL8) release; [11]),"inhibitory effect on MMP9 activity, lower than CEM-101 (MMP9 activity)",IC50 (MMP9 activity; [12]),IC50 (TNFα release; [13]),effect on TNFα production (TNFα release; at 100 μM),IC50 (IL-8 (CXCL8) release; [14]),effect on CXCL8 production (IL-8 (CXCL8) release; at 100 μM),other results
"CC[C@H]1OC(=O)[C@H](C)[C@@H](O[C@H]2C[C@@](C)(OC)[C@@H](O)[C@H](C)O2)[C@H](C)[C@@H](O[C@@H]2O[C@H](C)C[C@H](N(C)C)[C@H]2O)[C@](C)(O)C[C@@H](C)CN(C)[C@H](C)[C@@H](O)[C@]1(C)O [AZM, azithromycin]",did not inhibit,> 333 µM,8 mg/L,4 mg/L,128 mg/L,0.25 mg/L,4 mg/L,2 mg/L,≥ 32 mg/L,≥ 32 mg/L,did not inhibit,> 333 µM,10 fold,212 µM,,,,,
"CC[C@H]1OC(=O)[C@@](C)(F)C(=O)[C@H](C)[C@@H](O[C@@H]2O[C@H](C)C[C@H](N(C)C)[C@H]2O)[C@](C)(OC)C[C@@H](C)C(=O)[C@H](C)[C@H]2N(CCCCn3cc(-c4cccc(N)c4)nn3)C(=O)O[C@]12C [CEM-101, solithromycin]",,,,,,,,,,,,,,,41.6 ± 1.9 µM,significantly inhibited,78.2 ± 9.5 µM,significantly inhibited,"heart concentration relative to plasma (Tissue distribution): 5 fold; mean liver concentration relative to plasma (Tissue distribution; 250 mg/kg/d): 15 fold; mean lung concentration relative to plasma (Tissue distribution; 250 mg/kg/d): 17 fold; MIC (P. aeruginosa PAO1; PAO1, CA-MHB, EGTA 5 mM): 8 mg/L; MIC (P. aeruginosa PAO1; PAO1, CA-MHB, PaβN 50 mg/L): 8 mg/L; MIC (P. aeruginosa PAO1; PAO1, CA-MHB, control conditions (CT)): 32 mg/L; MIC (P. aeruginosa PAO1; PAO1, RPMI, EGTA 5 mM): 1 mg/L; MIC (P. aeruginosa PAO1; PAO1, RPMI, PaβN 50 mg/L): 2 mg/L; MIC (P. aeruginosa PAO1; PAO1, RPMI, control conditions (CT)): 2 mg/L; MICs against the strains it was active against ([1]; 21 of the 40 MRSA strains): 0.06 to 0.25 µg/mL; share of strains against which active ([1]; 21 of the 40 MRSA strains, MICs 0.06-0.25): 52.5%; MIC50 [1]: 0.25 mg/L; MIC90 [1]: ≧16 μg/mL; MICs against the remaining organisms ([1]; remaining 19 of 40 MRSA strains): ≥ 16 µg/mL; IC50 (MMP9 activity; read-out: IC50, PMA-induced MMP9 activation): 14.9 ± 3.1 µM"
"CC[C@H]1OC(=O)[C@H](C)[C@@H](O[C@H]2C[C@@](C)(OC)[C@@H](O)[C@H](C)O2)[C@H](C)[C@@H](O[C@@H]2O[C@H](C)C[C@H](N(C)C)[C@H]2O)[C@](C)(OC)C[C@@H](C)C(=O)[C@H](C)[C@@H](O)[C@]1(C)O [CLR, clarithromycin]",,,,8 mg/L,512 mg/L,32 mg/L,4 mg/L,32 mg/L,≥ 32 mg/L,≥ 32 mg/L,,,10 fold,118 µM,426 µM,,506 µM,,effect on TNFα production (TNFα release; [15]): modest effects; effect on IL-8 production (IL-8 (CXCL8) release; [15]): modest effects
"CC[C@H]1OC(=O)[C@H](C)[C@@H](O[C@H]2C[C@@](C)(OC)[C@@H](O)[C@H](C)O2)[C@H](C)[C@@H](O[C@@H]2O[C@H](C)C[C@H](N(C)C)[C@H]2O)[C@](C)(O)C[C@@H](C)C(=O)[C@H](C)[C@@H](O)[C@]1(C)O [ERY, erythromycin]",did not inhibit,> 333 µM,,16 mg/L,512 mg/L,32 mg/L,32 mg/L,32 mg/L,,,did not inhibit,> 333 µM,,,,,,,"effect on MMP9 activity (MMP9 activity): no effect; IC50 (MMP9 activity; Homo sapiens, U-937, at 333 μM, read-out: IC50, PMA-induced MMP9 activation: NE at 333 μM): > 333 µM"
"CC[C@H]1OC(=O)[C@H](C)C(=O)[C@H](C)[C@@H](O[C@@H]2O[C@H](C)C[C@H](N(C)C)[C@H]2O)[C@](C)(OC)C[C@@H](C)C(=O)[C@H](C)[C@H]2N(CCCCn3cnc(-c4cccnc4)c3)C(=O)O[C@]12C [TEL, telithromycin]",,,32 mg/L,4 mg/L,128 mg/L,1 mg/L,4 mg/L,2 mg/L,,,,,,,,did not inhibit,,did not inhibit,"IC50 (TNFα release; Homo sapiens, U-937, read-out: IC50, LPS-induced TNFα release: NE at 100 μM, U937 cells, at 100 μM): > 100 µM; IC50 (IL-8 (CXCL8) release; Homo sapiens, U-937, read-out: IC50, LPS-induced IL-8 release: NE at 100 μM, U937 cells, at 100 μM): > 100 µM"

# — patent US9861616B2, “Methods for treating respiratory diseases and formulations therefor” (priority 2013, dated 2018)
